Results as given in paper PMC8228075, “In Vitro and In Silico Characterization of G-Protein Coupled Receptor (GPCR) Targets of Phlorofucofuroeckol-A and Dieckol” (Marine Drugs, 2021).
Values joined by “and” are separate entries in the source; they are usually repeats but may differ in a detail not shown here. Identical values can stand only once.

Columns and labels:
Format in all cases: cell-based
[1] = biological target: T1, Alpha-2C adrenergic receptor (hα2CAR) (Homo sapiens, UniProt P18825); assay: hα2CAR functional agonist assay (cAMP, HTRF, CHO cells); settings: for Agonist Effect: % of control response to 1 µM epinephrine; for EC50: agonist effect, mean ± SD, n = 3
T1 construct: host or cells: CHO cells
T1 sequence (P18825 1-462): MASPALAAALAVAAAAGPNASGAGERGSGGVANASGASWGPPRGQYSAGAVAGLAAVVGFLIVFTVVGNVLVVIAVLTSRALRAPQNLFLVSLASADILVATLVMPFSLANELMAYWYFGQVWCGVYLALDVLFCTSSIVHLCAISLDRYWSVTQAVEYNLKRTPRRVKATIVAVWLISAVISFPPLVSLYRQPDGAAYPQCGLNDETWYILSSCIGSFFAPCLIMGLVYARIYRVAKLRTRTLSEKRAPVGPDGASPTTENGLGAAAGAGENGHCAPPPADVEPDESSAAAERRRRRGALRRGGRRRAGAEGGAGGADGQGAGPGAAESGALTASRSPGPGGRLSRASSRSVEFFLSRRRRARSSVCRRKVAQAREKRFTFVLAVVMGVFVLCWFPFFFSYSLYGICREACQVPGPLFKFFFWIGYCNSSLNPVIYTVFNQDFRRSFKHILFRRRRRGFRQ
Experimental: (§1) The in-house assay protocol and experimental conditions are reported in our previous reports. The functional effect of dieckol and PFF-A was characterized based on their modulation effect on cytosolic Ca^2+ ion mobilization using a fluorimetric detection method or by measuring their effect on cAMP modulation using homogeneous time-resolved fluorescence (HTRF) detection.
(§2) Functional activity of phlorotannins over hA2AR, hα2CAR, hCB1R, GLP-1R, and h5-HT1BR was determined by measuring their effects on cAMP production by the HTRF detection method using transected cells expressing human cloned receptors.
(§3) After 10 min at 37 °C, the cells were lysed and the fluorescence acceptor (D2-labeled cAMP) and fluorescence donor (anti-cAMP antibody labeled with europium cryptate) were added.

[2] = biological target: T1, Alpha-2C adrenergic receptor (hα2CAR); assay: hα2CAR functional antagonist assay (cAMP, HTRF, CHO cells); settings: read-out: Antagonist Effect
Experimental: as §1, §2, §3

[3] = biological target: T2, δ-opioid receptor (hδ-OPR) (Homo sapiens, UniProt P41143); assay: hδ-OPR functional agonist assay (Ca2+ mobilization, rat basophil leukemia cells); settings: 100 µM; % of control response to 1 µM DPDPE
T2 construct: host or cells: rat basophil leukemia cells
T2 sequence (P41143 whole entry): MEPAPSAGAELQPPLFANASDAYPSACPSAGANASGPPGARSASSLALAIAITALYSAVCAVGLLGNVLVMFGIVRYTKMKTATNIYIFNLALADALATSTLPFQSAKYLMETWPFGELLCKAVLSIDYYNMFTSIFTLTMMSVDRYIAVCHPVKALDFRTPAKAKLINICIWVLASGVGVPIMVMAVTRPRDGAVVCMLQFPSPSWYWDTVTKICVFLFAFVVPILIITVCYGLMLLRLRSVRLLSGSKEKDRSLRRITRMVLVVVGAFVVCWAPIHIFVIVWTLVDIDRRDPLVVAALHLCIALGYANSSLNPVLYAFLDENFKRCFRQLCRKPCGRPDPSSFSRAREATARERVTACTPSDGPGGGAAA
Source text: as §1
Thereafter, a mixture of fluorescent probe (Fluo8, AAT Bioquest) and probenecid in HBSS buffer (Invitrogen) complemented with 20 mM Hepes (Millipore) (pH 7.4) was added and plates were incubated for 60 min at 30 °C. Then, the assay plates were positioned in a FlipR Tetra microplate reader (Molecular Device, San Jose, CA, USA) for the addition of the test compound, reference agonist/antagonist, or HBSS buffer (basal control). Change in fluorescence intensity that varies proportionally to the free cytosolic Ca^2+ ion concentration was measured.

[4] = biological target: T3, Cannabinoid receptor 1 (CB1R) (Homo sapiens, UniProt P21554); assay: hCB1R functional antagonist assay (cAMP, HTRF, CHO cells); settings: CHO, read-out: Antagonist Effect
T3 construct: host or cells: CHO cells
T3 sequence (P21554 whole entry): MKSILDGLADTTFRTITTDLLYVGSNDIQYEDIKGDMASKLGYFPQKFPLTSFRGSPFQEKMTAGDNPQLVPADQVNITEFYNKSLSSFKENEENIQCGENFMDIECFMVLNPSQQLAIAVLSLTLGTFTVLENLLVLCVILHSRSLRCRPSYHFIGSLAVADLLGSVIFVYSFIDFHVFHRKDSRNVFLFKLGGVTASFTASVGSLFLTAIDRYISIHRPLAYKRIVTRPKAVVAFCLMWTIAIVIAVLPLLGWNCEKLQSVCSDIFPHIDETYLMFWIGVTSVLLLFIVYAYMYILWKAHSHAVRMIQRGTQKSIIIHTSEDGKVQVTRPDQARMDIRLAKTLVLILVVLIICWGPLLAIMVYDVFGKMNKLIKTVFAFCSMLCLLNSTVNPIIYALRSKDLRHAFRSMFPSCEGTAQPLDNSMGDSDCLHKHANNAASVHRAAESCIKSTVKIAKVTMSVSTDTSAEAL
Experimental: as §1, §2
The transfected CHO cells were suspended in HBSS buffer (Invitrogen) complemented with 20 mM HEPES (pH 7.4). […] After 30 min of incubation at 37 °C, the cells were lysed and the fluorescence acceptor (D2-labeled cAMP) and fluorescence donor (anti-cAMP antibody labeled with europium cryptate) were added.

[5] = biological target: T4, Free fatty acid receptor 1 (FFA1R) (GPR40) (Homo sapiens, UniProt O14842); assay: FFA1R/GPR40 functional agonist assay (Ca2+ mobilization, HEK-293 cells); settings: 100 µM; % of control response to 100 µM linoleic acid
T4 construct: host or cells: HEK-293 cells
T4 sequence (O14842 whole entry): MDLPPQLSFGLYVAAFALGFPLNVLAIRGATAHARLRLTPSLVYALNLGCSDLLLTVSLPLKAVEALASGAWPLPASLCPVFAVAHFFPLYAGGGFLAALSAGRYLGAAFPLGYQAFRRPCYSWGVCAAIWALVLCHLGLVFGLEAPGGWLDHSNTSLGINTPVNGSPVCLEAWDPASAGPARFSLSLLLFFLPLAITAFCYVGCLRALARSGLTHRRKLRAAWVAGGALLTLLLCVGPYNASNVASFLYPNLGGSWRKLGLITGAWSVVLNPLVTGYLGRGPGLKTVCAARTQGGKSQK
Experimental: The in-house assay protocol and experimental conditions are reported in our previous reports. […] Then, the mixture of fluorescent probe (Fluo4 Direct, Invitrogen) and probenecid in HBSS buffer (Invitrogen) complemented with 20 mM Hepes (Invitrogen) (pH 7.4) was added into each well and incubated for 60 min at 37 °C, followed by 15 min incubation at 22 °C. Thereafter, the assay plates were positioned in a CellLux microplate reader (PerkinElmer, Waltham, MA, USA) which was used for the addition of the following: For agonist assay-test compound, reference agonist, or HBSS buffer (basal control). Linoleic acid at 100 μM was added in separate assay wells for stimulated control measurement.

[6] = biological target: T4, Free fatty acid receptor 1 (FFA1R) (GPR40); assay: FFA1R/GPR40 functional antagonist assay (Ca2+ mobilization, HEK-293 cells); settings: HEK293, read-out: Antagonist Effect
[7] = biological target: T5, h5-HT1AR (Homo sapiens, UniProt P08908); assay: h5-HT1AR functional antagonist assay (Ca2+ mobilization, Ba/F3 cells); settings: for Antagonist Effect: 50 µM, % inhibition of control response to 30 nM serotonin; for IC50: antagonist effect, mean ± SD, n = 3
T5 construct: host or cells: Ba/F3-5HT1AR cells
T5 sequence (P08908 1-422): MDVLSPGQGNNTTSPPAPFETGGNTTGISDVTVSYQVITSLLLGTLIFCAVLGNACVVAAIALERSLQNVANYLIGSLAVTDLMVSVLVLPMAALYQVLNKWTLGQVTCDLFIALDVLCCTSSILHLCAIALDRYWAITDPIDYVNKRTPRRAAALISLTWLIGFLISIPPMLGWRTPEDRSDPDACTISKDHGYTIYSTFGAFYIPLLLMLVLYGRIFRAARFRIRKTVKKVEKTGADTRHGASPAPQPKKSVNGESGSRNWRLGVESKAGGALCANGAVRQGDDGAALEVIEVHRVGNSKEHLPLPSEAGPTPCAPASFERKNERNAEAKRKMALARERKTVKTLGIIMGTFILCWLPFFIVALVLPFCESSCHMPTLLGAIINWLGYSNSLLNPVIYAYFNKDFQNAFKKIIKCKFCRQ
Experimental: as §1
In brief, Ba/F3-5HT1AR cells were first suspended in HBSS buffer (Invitrogen, Carlsbad, CA, USA) complemented with 20 mM HEPES buffer (pH 7.4). Then, the cells were distributed into microplates at a density of 1 × 10^6 cells/well. Subsequently, fluorescent probe (Fluo8, AAT Bioquest) mixed with probenecid in HBSS buffer (Invitrogen, Carlsbad, CA, USA) supplemented with 20 mM HEPES (Invitrogen) (pH 7.4) was added to each well, and the plates were incubated for 60 min at 37 °C. […] Fluorescence intensity was measured which varied in proportion to the free cytosolic Ca^2+ ion concentration.

[8] = BaF3, read-out: Antagonist Effect

Structure (SMILES) | Agonist Effect ([1]; 100 µM) | Agonist Effect ([1]; 150 µM) | Agonist Effect ([1]; 200 µM) | EC50 [1] | inhibition at 100 µM [2] | Agonist Effect [3] | inhibition at 100 µM [4] | Agonist Effect [5] | inhibition at 100 µM [6] | Antagonist Effect [7] | inhibition at 100 µM [7, 8] | inhibition at 200 µM [7, 8] | IC50 [7] | Agonist Effect ([1]; 12.5 µM) | Agonist Effect ([1]; 25 µM) | Agonist Effect ([1]; 50 µM) | inhibition at 12.5 µM [7, 8] | inhibition at 25 µM [7, 8]
Oc1cc(O)cc(Oc2c(O)cc(O)c3c2Oc2c(O)cc(Oc4c(O)cc(Oc5c(O)cc(O)c6c5Oc5c(O)cc(O)cc5O6)cc4O)cc2O3)c1 [Dieckol, dieckol] | 52.4 ± 4.24% | 73.0 ± 6.42% | 74.77 ± 6.60% | 98.8 ± 7.71 µM | -1.2 ± 6.08% | −5.7 ± 0.14% | 159 ± 17.8% | 0.2 ± 1.56% | 22.6 ± 5.44% | 54.7 ± 1.7% | 91 ± 3.11% | 100.9 ± 0.57% | 43.3 ± 3.22 µM | – | – | – | – | –
Oc1cc(O)cc(Oc2c(O)cc(O)c3c2Oc2c(O)cc4oc5c(Oc6cc(O)cc(O)c6)c(O)cc(O)c5c4c2O3)c1 [PFF-A, phlorofucofuroeckol-A] | 83.8 ± 0.07% | – | – | 23.7 ± 3.32 µM | 19.2 ± 9.76% | 14.7 ± 7.35% | 21.4 ± 0.49% | −1.0 ± 0.07% | 30.1 ± 0.78% | 85.55 ± 8.41% | 77 ± 11% | – | 17.8 ± 3.42 µM | 22.03 ± 6.61% | 55% and 55.0 ± 9.13% | 62.27 ± 6.53% | 37.4 ± 2.19% | 68.2 ± 9.89%
